According to US8796474:

Settings: from CC[C@@H](O)C(C)=C=C[C@@H](OCc1ccccc1)[C@H](C)CC(C)=C=C[C@H](OCc1ccccc1)[C@@H](C)C(=O)O; ester bond; 2,4,6-trichlorobenzoyl chloride / TEA / DMAP (Yamaguchi); toluene; 3.18 mM; 80.0 °C; 8.0 h

`CC[C@H]1OC(=O)[C@H](C)[C@@H](OCc2ccccc2)C=C=C(C)C[C@@H](C)[C@H](OCc2ccccc2)C=C=C1C` showed a ring closure, yield of all isomers of 64%.
